Our source for the Activity and EC50 values is ChEMBL document CHEMBL1157280, “Immunomodulatory principles of Dichrocephala bicolor” (J Nat Prod, 1999).

Structures are written as SMILES. ≈ marks a conversion by molar mass, not a printed value. Calls of active or inactive are those of the source. The rule behind the calls is not given here.

The species named for assay [1] is Homo sapiens. Briefly: Induction of resting HMNC proliferation assessed as [3H]thymidine uptake at 10 ug/mL after 3 days by lymphoproliferation test relative to control. In kind it is functional.
The species entered for assay [2] is Homo sapiens. In words: Induction of phytohemagglutininin-activated HMNC proliferation assessed as [3H]thymidine uptake at 10 ug/mL after 3 days by lymphoproliferation test relative to control. The assay is classed as functional.
Assay [3] is described as follows: Induction of resting HMNC proliferation assessed as [3H]thymidine uptake after 3 days by lymphoproliferation test. The assay is classed as functional, Homo sapiens.
The nature of assay [4]: Induction of phytohemagglutininin-activated HMNC proliferation assessed as [3H]thymidine uptake after 3 days by lymphoproliferation test. The assay is classed as functional, Homo sapiens.
The species named for assay [5] is Homo sapiens. Briefly: (§1) Immunomodulatory activity in phytochemagglutininin-stimulatedHMNC assessed as IFN-gamma production after 3 days by EIA. In kind it is functional.
Assay [6] in a line: as §1. The assay is classed as functional, Homo sapiens.
For assay [7], the species on record is Homo sapiens. In words: Immunomodulatory activity in resting HMNC assessed as IFN-gamma production at 10 ug/mL after 3 days by EIA realtive to control. In kind it is functional.
Assay [8] is filed under the species Homo sapiens. Briefly: Immunomodulatory activity in phytochemagglutininin-stimulatedHMNC assessed as IFN-gamma production at 10 ug/mL after 3 days by EIA realtive to control. In kind it is functional.
The species named for assay [9] is Homo sapiens. Briefly: (§2) Immunomodulatory activity in resting HMNC assessed as IFN-gamma production after 3 days by EIA. In kind it is functional.
Assay [10] in a line: as §2. In kind it is functional, Homo sapiens.

Regarding `CCOC(=O)[C@]1(O)C[C@H](OC(=O)/C=C/c2ccc(O)c(O)c2)[C@@H](OC(=O)/C=C/c2ccc(O)c(O)c2)[C@@H](O)C1`, the result in the assay filed under Homo sapiens [1] and in the assay filed under Homo sapiens [2] was inactive.
Take `O=C(/C=C/c1ccc(O)c(O)c1)O[C@@H]1C[C@](O)(C(=O)O)C[C@@H](O)[C@H]1O` [CHLOROGENIC ACID]: the EC50 – broadly, the midpoint of the concentration-response curve – in [3] was found to be 1.54 µg/mL (≈ 4.35 µM); in assay [4] it was 4.9 µg/mL (≈ 13.8 µM); in assay [6], 2.8 µg/mL (≈ 7.9 µM); in assay [10], 3.9 µg/mL (≈ 11 µM). Besides, the Activity entry was “Dose-dependent effect” in the assay listed under Homo sapiens [5]; 38.5 pg/mL in the assay filed under Homo sapiens [7]; “Dose-dependent effect” in the assay listed under Homo sapiens [9]; 910 cpm in the assay filed under Homo sapiens [1]; 97.9% in the assay listed under Homo sapiens [2]. For the same compound, in the assay filed under Homo sapiens [8], the outcome was Active.
Regarding `O=C(/C=C/c1ccc(O)c(O)c1)O[C@@H]1C[C@](O)(C(=O)O)C[C@@H](OC(=O)/C=C/c2ccc(O)c(O)c2)[C@H]1O`, the outcome in the assay listed under Homo sapiens [1] and in the assay filed under Homo sapiens [2] was inactive.
For `O=C(/C=C/c1ccc(O)c(O)c1)O[C@@H]1[C@@H](OC(=O)/C=C/c2ccc(O)c(O)c2)C[C@@](O)(C(=O)O)C[C@@H]1O`, the outcome in the assay listed under Homo sapiens [1] and in the assay listed under Homo sapiens [2] was inactive.
For the compound `C[C@@H]1O[C@@H](OC[C@H]2O[C@@H](Oc3c(-c4ccc(O)c(O)c4)oc4cc(O)cc(O)c4c3=O)[C@H](O)[C@@H](O)[C@@H]2O)[C@H](O)[C@H](O)[C@H]1O`, the outcome in the assay filed under Homo sapiens [1] and in the assay listed under Homo sapiens [2] was inactive.
On to `O=C(O)/C=C/c1ccc(O)c(O)c1`, for which the result in the assay listed under Homo sapiens [7], in the assay filed under Homo sapiens [8], in the assay filed under Homo sapiens [1] and in the assay filed under Homo sapiens [2] was inactive.
As for `O=C(/C=C/c1ccc(O)c(O)c1)O[C@H]1[C@@H](OC(=O)/C=C/c2ccc(O)c(O)c2)C[C@](O)(C(=O)O)C[C@@H]1O`, the concentration for a half-maximal effect (EC50) in assay [3] came out at 4.4 µg/mL (≈ 8.52 µM); in [4] it was 8.1 µg/mL (≈ 15.7 µM); in [6], 5 µg/mL (≈ 9.68 µM); in [10] it was 1.25 µg/mL (≈ 2.42 µM). The Activity result in the assay filed under Homo sapiens [5] is “Dose-dependent effect”; in the assay listed under Homo sapiens [7] it was 30.5 pg/mL; in the assay filed under Homo sapiens [9], “Dose-dependent effect”; in the assay listed under Homo sapiens [1], 726 cpm; in the assay filed under Homo sapiens [2], 78.4%. Moreover, the outcome in the assay listed under Homo sapiens [8] was Active.
Turning to `COC(=O)[C@]1(O)C[C@H](OC(=O)/C=C/c2ccc(O)c(O)c2)[C@@H](O)[C@@H](OC(=O)/C=C/c2ccc(O)c(O)c2)C1`, the outcome in the assay listed under Homo sapiens [1] and in the assay listed under Homo sapiens [2] was inactive.
